Results as given in patent US5593970A, “Heterocyclic anthracycline analogs” (priority 1994, dated 1997).
pIC50: −log10 of the molar value. Entries after “also recorded” stand apart in the source; their conditions may differ. Where a name gives a salt, the structure may show the parent alone. Read-outs that look alike come from different tables or passages of the source.

Legend:
MCF7 = assay: Soft agar colony formation disk diffusion assay; assay type: cell-based, human
Summary of the method: (§1)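 Plate cells in an upper 0.4% agar layer over a 0.8% agar base, then add compound on a 6.5 mm disk one-third from the dish edge. Incubate 10–20 days at 37 °C, 5% CO2. Measure the colony-free zone around the disk with a calibrated micrometer.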

MCF7/ADR = assay: Soft agar colony formation disk diffusion assay; assay type: cell-based, human
Summary of the method: as §1

LS180 = assay: Soft agar colony formation disk diffusion assay; assay type: cell-based, human
Summary of the method: as §1

tumor cell lines = assay: Tumor clonogenic assay, overall; assay type: cell-based
Description: For the IN VITRO test, we chose a tumor clonogenic assay which measures the ability of tumoral cells to form colonies (multicellular growth units) as a result of cell division in semisolid agar support (2,3). A more elaborate version of this fundamental assay, the soft agar colony formation disk diffusion assay was used. This assay defines the relative activity of one particular drug versus a tumoral cell line type. The effect of the test drug against tumoral cells could be measured by its inhibitory capacity against colony formation after the delivery of the compound, in different concentrations on an filter disk(4).
A modified technique of this assay was used in order to investigate the antiproliferative activity of candidate compounds. Tumoral cells from solid tumors and ascitic lines were plated separately in a two layer agar matrix. Cell lines to be tested were suspended in an upper layer of 0.4% Noble agar (Difco#00142-01) in RPMI-1066 (Gibco#3201875) at a yield varying between 10^4 to 2×10^5 cells per 60 mm Petri dish. Plating efficiency was determined for each line in order to achieve an optimal number of colonies per dish. Plates were examined before drug administration to confirm a uniform dispersion of single cells. The bottom layer consisted of 0.8% Noble agar, 0.8% Tryptic Soy Broth (difco#0037001)in CMRL-1066/Fischer's. The bottom layers were used within 2 and 9 days of preparation. Plated dishes (bottom layer of agar, upper layer of cells and administered drug were incubated in humidified atmosphere at 37° C., 5% CO2 for 10-20 days depending upon the time necessary to observe adequate colonies (defined as a cell aggregate of more than 50 cells) both control and drug inhibited. Drugs were administered on a paper filter disk (Whatman No. 1) of 6.5 mm diameter placed on the upper layer at 1/3 distance from the edge of the dish. The anti-clonogenic activity of the compounds was measured as the zone of inhibition from the disk edge to the most proximal colonies. This zone of inhibition was checked on an inverted microscope (40×) and was measured with a micrometer mounted in the eyepiece. The ocular micrometer was calibrated with a stage micrometer set for a particular combination of ocular and objective lenses.
200 units of activity are equivalent to 6.5 mm distance from the disk edge to the first colonies (5). […] We made a modification of the initial technique by not plating a solid tumor and a leukemia simultaneously in the same Petri dish. Anti-clonogenic tests performed on leukemia cell line have helped in the discovery of the majority of current clinically used cytostatic drugs. Our tests on solid tumor lines (animal or human) may help define active compounds with solid tumor specificity. This specific activity would be indicated by a higher level of cloning inhibition in solid tumors versus leukemias (6).

HT29 = assay: Microculture tetrazolium assay; assay type: cell-based; conditions: read-out: IC50
LOX = assay: Microculture tetrazolium assay; assay type: cell-based; conditions: read-out: IC50
Colon = assay: NCI assay, average per cancer type; conditions: Homo sapiens; for CC50: 48 h, read-out: Average LOG10 LC50; for GI50: read-out: Average LOG10 GI50
BE-1 = assay: Soft agar colony formation disk diffusion assay; assay type: cell-based, human
Summary of the method: as §1

Ovarian = assay: NCI assay, average per cancer type; conditions: Homo sapiens; for CC50: 48 h, read-out: Average LOG10 LC50; for GI50: read-out: Average LOG10 GI50
CNS = assay: NCI assay, average per cancer type; conditions: Homo sapiens; for CC50: 48 h, read-out: Average LOG10 LC50; for GI50: read-out: Average LOG10 GI50
SC Lung = assay: NCI assay, average per cancer type; conditions: Homo sapiens; for CC50: 48 h, read-out: Average LOG10 LC50; for GI50: read-out: Average LOG10 GI50
Renal = assay: NCI assay, average per cancer type; conditions: Homo sapiens; for CC50: 48 h, read-out: Average LOG10 LC50; for GI50: read-out: Average LOG10 GI50
Melanoma = assay: NCI assay, average per cancer type; conditions: Homo sapiens; for CC50: 48 h, read-out: Average LOG10 LC50; for GI50: read-out: Average LOG10 GI50

Row | Compound | zone of inhibition (MCF7; 10 μg/DISK) [Zone Units] | zone of inhibition (MCF7; 100 μg/DISK) [Zone Units] | zone of inhibition (MCF7/ADR; 10 μg/DISK) [Zone Units] | zone of inhibition (MCF7/ADR; 100 μg/DISK) [Zone Units] | zone of inhibition (LS180; 10 μg/DISK) [Zone Units] | zone of inhibition (LS180; 100 μg/DISK) [Zone Units] | activity and specificity in words (tumor cell lines) | pIC50 (LOX) | CC50 (Colon) [µM] | GI50 (Colon) [µM] | zone of inhibition (BE-1; 10 μg/DISK) [Zone Units] | zone of inhibition (BE-1; 100 μg/DISK) [Zone Units] | CC50 (Ovarian) [µM] | GI50 (Ovarian) [µM] | CC50 (CNS) [µM] | GI50 (CNS) [µM] | pIC50 (HT29; Homo sapiens, HT-29, HT29) | GI50 (SC Lung) [µM] | CC50 (Renal) [µM] | GI50 (Renal) [µM] | also measured
1 | 3-(2-acetoxy-1-propeneketal)aceto-6-acetoxy-1-hydroxy-1,2,3,4-tetrahydro-(2-oxygen)naphtacene-5,12-dione and 3-(2-acetoxy-1-propeneketal)-aceto-11-acetoxy-1-hydroxy-1,2,3,4-tetrahydro-(2-oxygen)naphtacene-5,12-dione [BCH-710] | 0 | 24.0 ± 8.4 | 0 | 106.0 ± 21.9 | 48.5 ± 26.1 | 110.0 ± 50.2 | most active | 5.45 | – | – | – | – | – | – | – | – | – | – | – | – | activity and specificity in words (tumor cell lines; listed as BCH 710): specificity for the MATB/ADR rat breast ADR resistant adenocarcinoma and mouse ovarian reticulum cell sarcoma; pIC50 (HT29; HT29): 5.75
2 | CCOC(=O)[C@@H]1CC2=C(C(=O)c3c(c(O)c4ccccc4c3OC(C)=O)C2=O)[C@@H](O)O1 (mixture of isomers) [BCH-658, (1S,3S) and (1R,3R) Ethyl[11-acetoxy-1,6-dihydroxy-5,12-dioxo-3,4,5,12-tetrahydroanthraceno (2,3-c)pyran-3-yl]formate] | 0 | – | 0 | 0 | 48.8 ± 34.5 | 164.7 ± 25.8 | – | 4.18 | > 100 | 61.7 | 0 | 0 | > 100 | > 100 | > 100 | 46.8 | < 4.00 | > 100 | > 100 | 46.8 | CC50 (SC Lung): > 100 µM; CC50 (Melanoma): > 100 µM; GI50 (Melanoma): > 100 µM
3 | CCOC(=O)[C@@H]1CC2=C(C(=O)c3cc4ccccc4c(OC(C)=O)c3C2=O)[C@@H](O)O1 (mixture of isomers) [BCH-660, (1S,3S) and (1R,3R)-Ethyl-[6-acetoxy-1-hydroxy-5,12-dioxo-3,4,5,12-tetrahydroanthraceno (2,3-c)pyran-3-yl]formate] | 27.4 ± 4.3 | 82.3 ± 12.9 | 9.1 ± 4.3 | 109.8 ± 10.0 | 15.0 ± 4.2 | 76.0 ± 4.2 | – | 5.01 | > 100 | 0.617 | 45.7 ± 21.5 | 125.0 ± 12.7 | 6.61 | 0.955 | 15.8 | 0.955 | 5.53 | 1 | 7.94 | 0.912 | CC50 (SC Lung): > 100 µM; CC50 (Melanoma): 10.5 µM; GI50 (Melanoma): 0.955 µM
4 | COC(=O)[C@H]1CC2=C(C(=O)c3c(c(OC)c4ccccc4c3O)C2=O)[C@H](O[C@H]2C[C@H](NC(=O)C(F)(F)F)[C@H](O)[C@H](C)O2)O1 (mixture of isomers) [BCH-675, (1'S,1S,3R) and 1'S,1R,3S) Methyl(11-hydroxy-6-methoxy-1-[2',3',6'-trideoxy-3-trifluoroacetamido-4'-hydroxy-L-lyxohexopyranose]-5,12-dioxo-3,4,5,12-tetrahydroanthra-ceno[2,3-c]pyran-3-yl) formate] | 0 | 30.5 ± 10.5 | 0 | 26.3 ± 14.0 | 0 | 148.4 ± 31.3 | – | 5.37 | 85.1 | 8.71 | 0 | 46.7 ± 5.3 | 63.1 | 8.51 | 61.7 | 10.7 | 5.28 | 7.24 | 56.2 | 9.12 | CC50 (Melanoma): 79.4 µM; GI50 (Melanoma): 5.89 µM
5 | COC(=O)[C@H]1CC2=C(C(=O)c3c(cc4ccccc4c3O)C2=O)[C@H](O[C@H]2C[C@H](NC(=O)C(F)(F)F)[C@H](O)[C@H](C)O2)O1 (mixture of isomers) [BCH-692, (1'S,1S,3R) and (1'S,1R,3S) Methyl[11-hydroxy-1-(2',3',6'-trideoxy-3'-trifluoroacetamido-4'-hydroxy-L-lyxohexopyranose)-5,12-dioxo-3,4,5,12-tetrahydro-anthraceno[2,3-c]pyran-3-yl]formate] | 131.0 ± 12.7 | 289.5 ± 22.0 | 122.0 ± 10.0 | 237.9 ± 8.6 | 130.0 ± 12.5 | 250.0 ± 8.4 | most active; also recorded: Good broad spectrum activity | 5.41 | – | – | 0 | 100.0 ± 50.0 | – | – | – | – | 5.66 | – | – | – | cross resistance with adriamycin, MCF7/ADR vs MCF7 (MCF7/ADR): lack of cross resistance with adriamycin
6 | CCOC(=O)C1CC2=C(CO1)C(=O)c1c(cc3ccccc3c1O)C2=O (centres unmarked) [BCH-651, Ethyl(6 and 11 hydroxy-5,12-dioxo-3,4,5,12-tetrahydro-anthraceno[2,3-c]pyran-3-yl)]formate] | – | 115.9 ± 8.6 | 10.0 ± 5.0 | 131.1 ± 30.1 | 0 | 76.2 ± 21.5 | – | 4.66 | 41.7 | 3.39 | 0 | 106.7 ± 21.5 | 46.8 | 5.89 | 64.6 | 10 | 4.77 | 2.75 | 55 | 10 | CC50 (SC Lung): 61.7 µM; CC50 (Melanoma): 34.7 µM; GI50 (Melanoma): 2.75 µM
7 | CCOC(=O)[C@H]1CC2=C(C(=O)c3cc4ccccc4c(O)c3C2=O)[C@H](O[C@H]2C[C@H](NC(=O)C(F)(F)F)[C@H](O)[C@H](C)O2)O1 [BCH-684, (1'S,1S,3R)Ethyl[6-hydroxy-5,12-dioxo-1-(3'-trifluoroacetamido-1-daunosaminyl)-3,4,5,12-tetrahydroanthraceno(2,3-C)pyran-3-yl]formate] | 115.9 ± 8.6 | 225.7 ± 25.8 | 161.6 ± 30.1 | 437.1 ± 30.1 | – | – | most active; also recorded: Good broad spectrum activity | – | – | – | – | – | – | – | – | – | – | – | – | – | cross resistance with adriamycin, MCF7/ADR vs MCF7 (MCF7/ADR): more active in the adriamycin resistant cell line
8 | CC(=O)Oc1c2c(c(O)c3ccccc13)C(=O)C1=C(C2=O)C(O)OC(C(C)=O)C1 (centres unmarked) [BCH-704, Methyl(11-acetoxy-1,6-dihydroxy-5,12-dioxo-3,4,5,12-tetrahydroanthraceno[2,3-c]pyran-3-yl)ketone] | 183.0 ± 10.8 | 320.5 ± 21.5 | 122.0 ± 25.8 | 323.0 ± 16.8 | 38.3 ± 2.4 | 131.1 ± 31.1 | most active; also recorded: Specificity for breast cancer | 4.55 | – | – | – | – | – | – | – | – | 4.97 | – | – | – | –
